{"source": "patent US11154540B2", "about": "“Methods of treating ophthalmic disease/disorder or injury with ibudilast” (MediciNova, Inc., priority 2018, dated 2021)", "key": {"[1]": {"conditions": "Sanftner et al., Xenobiotica 2009 39: 964-977; cited from earlier work"}, "[2]": {"test_system": "subjects with primary or secondary progressive multiple sclerosis", "test": "Optical coherence tomography (OCT) outcomes in the SPRINT-MS phase II randomized, double-blind, placebo-controlled trial", "assay_type": "in vivo, human", "method": "This was a multicenter, randomized, double-blind, placebo-controlled, parallel-group study designed to evaluate the safety, tolerability and activity of ibudilast administered twice daily over a 96 week period in subjects with primary or secondary progressive multiple sclerosis. The primary objectives of the study were: • to evaluate the activity of ibudilast (100 mg/d) versus placebo at 96 weeks as measured by quantitative magnetic resonance imaging (MRI) analysis for whole brain atrophy using brain parenchymal fraction (BPF); • to evaluate the safety and tolerability of ibudilast (100 mg/d) versus placebo administered orally in subjects with primary and secondary progressive multiple sclerosis; and • to study the effect of ibudilast on macular measures from the SPRINT-MS phase II trial of ibudilast in progressive MS. The major secondary objectives were to evaluate the activity of ibudilast at 96 weeks versus placebo as measured by: • Diffusion tensor imaging (DTI) in descending pyramidal white matter tracts; • Magnetization transfer ratio (MTR) imaging in normal-appearing brain tissue; • Retinal nerve fiber layer as measured by Optical coherence tomography (OCT); and • Cortical atrophy as measured by cortical longitudinal atrophy detection algorithm ([…] total of 255 male and female subjects from 21 to 65 years old, inclusive, were enrolled into one of two treatment arms (ibudilast 100 mg/d or matching-placebo). Study population for SPRINT-MS was a mix of primary (53%) and secondary progressive (47%) MS, average age 56 years and median expanded disability status scale (EDSS)=6.0 at baseline. Randomization of subjects was stratified by disease status ([…]), and by immunomodulating therapy status: “untreated”, glatiramer acetate (GA), or interferon-beta. Subjects were allowed to continue using of interferon-beta (IFN-β) or glatiramer acetate while participating in this study. During the study, subjects were allowed to change medications from one injectable to the other. Pegylated interferon beta-1 were also allowed (if approved by the FDA). Inhaled and topical steroids are allowed. If a relapse episode occurred, a single course of systemic corticosteroids was permitted, as prescribed by the treating neurologist. Subjects returned to the clinic for follow-up visits on a regular basis at Week 4, 8, 12, 24, 36, 48, 60, 72, 84 and 96. The double-blind Treatment Phase consisted of a Baseline visit followed by 10 scheduled clinic visits. The Baseline Visit had to have occurred within 45 days following the Screening Visit. At the Baseline Visit (Day 1), subjects who completed all of the screening assessments and continued to meet eligibility criteria were randomized to one of two treatment groups (ibudilast 100 mg/d or placebo) in a 1:1 ratio. […] Subjects took their first dose of study medication (30 mg ibudilast or placebo) on the evening of the Baseline Visit (Day 1). On the morning of Day 2, all subjects begun a 3 capsule BID dosing regimen through Day 14. Subjects randomized to ibudilast started at 60 mg/d (30 mg BID) on Day 2 and remained on 60 mg/d through Day 14. Beginning on Day 15, all subjects increased dosing to 5 capsules BID regimen; those randomized to the ibudilast treatment arm were taking 100 mg/d. After Day 15, subjects with intolerable side-effects (e.g., nausea, diarrhea, vertigo) were allowed to reduced their dose to either 4 capsules twice a day (80 mg/d for those taking ibudilast) or 3 capsules twice a day (60 mg/d for those taking ibudilast). Subjects with intolerable side-effects (e.g., nausea, diarrhea, vertigo) at the end of Day 14 were allowed to continue taking 3 capsules twice a day at the Investigator's discretion. At the Investigator's discretion, the daily dose of ibudilast were potentially adjusted between 3 capsules twice a day, 4 capsules twice a day, and 5 capsules twice a day over the first 8 weeks of treatment. […]"}}, "note": "“Also recorded” adds a separate entry of the source.", "data": [{"smiles": "CC(C)C(=O)c1c(C(C)C)nn2ccccc12", "note": "[ibudilast, 3-isobutyryl-2-isopropylpyrazolo[1,5-a]pyridine]", "values": [{"measurement": "CNS distribution / penetration (in words)", "setting": "[1]", "result": "distributes well to the CNS; also recorded: good CNS penetration"}, {"measurement": "macular volume loss and GCIP layer thinning (in words)", "setting": "[2]; Cirrus OCT", "result": "favorable changes towards reduced macular volume loss and GCIP layer thinning"}, {"measurement": "rate of macular volume loss, between-group difference per year", "setting": "[2]; Cirrus OCT, ibudilast vs placebo, 95% CI: −0.0090 to 0.0499", "result": 0.0204, "unit": "mm^3"}, {"measurement": "ganglion cell-inner plexiform layer thinning, between-group difference per year", "setting": "[2]; Cirrus OCT, ibudilast vs placebo, 95% CI: −0.1189 to 1.0578", "result": 0.469, "unit": "µm/year"}, {"measurement": "annual macular volume loss compared to placebo (in words)", "setting": "[2]; Spectralis OCT over 96 weeks", "result": "slower"}, {"measurement": "rate of macular volume loss, between-group difference per year", "setting": "[2]; Spectralis OCT, ibudilast vs placebo, 95% CI: 0.0008 to 0.0623", "result": 0.0316, "unit": "mm^3"}, {"measurement": "estimated rate of macular volume change per year", "setting": "[2]; patients followed with Cirrus OCT, 95% CI: −0.02167 to 0.020866, placebo −0.02083, p=0.1734", "result": "−0.0004", "unit": "mm^3"}, {"measurement": "estimated rate of macular volume change per year", "setting": "[2]; patients followed with Spectralis OCT, 95% CI: −0.02693 to 0.01688, placebo −0.03659, p=0.044", "result": "−0.00503", "unit": "mm^3"}]}]}
